Measurements: patent US5622725A, “Wound disinfection and repair” (Alcide Corporation, priority 1996, dated 1997)

Test system: Staphylococcus epidermidis biofilms
Assay: Sterilization of S. epidermidis biofilms, minimal exposure time at 22° C. (supravital dye, confirmed by culture)
Format: cell-based
Source text: This example compares and contrasts the cidal effectiveness of compositions of the invention with other disinfectants and antibiotics against Staphylococcus epidermidis biofilms, which are frequently observed on the surface of C.A.P.D. peritoneal catheters even in the absence of peritonitis or exit site infections.
A strain of S. epidermidis with characteristic abundant slime production, and derived from a human source, is used to prepare the biofilms. The isolate is fully sensitive in the fluid phase to all commonly used antibiotics as assayed using routine test methods. Aliquots of the bacteria are frozen at -70° C. in 10% glycerol broth or propagated on 5% defibrinated horse blood agar. Standardized biofilms are formed on soda glass microscope slides or slides coated with Silastic® (the basic material of indwelling catheters; see Cecil's, cited above, on page 542), placed in Petri dishes containing 20 ml of tryptone soya broth (Oxoid Ltd., England), seeded with 10^4 cfu S. epidermidis and incubated for 18 hours at 37° C. Reproducible uniform and confluent S. epidermidis biofilms of minimal density are formed.
Antibiotic activity against S. epidermidis biofilms are determined using a supravital dye which acts as an electron acceptor in coupled oxidative systems in biofilm bacteria. The method allows the bacteria to be examined undisturbed within the biofilm matrix in situ. Briefly stated, the biofilms are exposed to antibiotic solutions and incubated at […] for varying periods of time. Positive (viable, 1% peptone water) and negative (sterilized, 4% formol-peptone) controls are included in all experiments. After a designated exposure at 22° C. for varying periods of time between 15 seconds to 6 hours, the biofilms are rinsed twice in sterile water and allowed to drain. They are then placed in a flat agar medium incorporating substantive dyes and incubated at 37° C. for 4 hours, then 24 hours. Viability is assessed visually by a change in dye color and confirmed after 24 hours by mechanically scraping and subsequently culturing the biofilms. Sterilization is indicated by the absence of color changes and confirmed by culture of both intact and mechanically fragmented biofilms. Inhibition of growth is indicated by a lack of color change after a 4-hour incubation and confirmed by a positive color change by 24 hours.

OO [Hydrogen Peroxide (3%), Hydrogen Peroxide]
contact time relative to 50 ppm ClO2 to destroy the organisms in the biofilm (3% concentration, vs 50 ppm ClO2): 1200 times | Exposure Time (22° C.) for Film Sterilization: 10 min

CO[C@H]1/C=C/O[C@@]2(C)Oc3c(C)c(O)c4c(O)c(c(/C=N/N5CCN(C)CC5)c(O)c4c3C2=O)NC(=O)/C(C)=C\C=C\[C@H](C)[C@H](O)[C@@H](C)[C@@H](O)[C@@H](C)[C@H](OC(C)=O)[C@@H]1C [rifampin]
Exposure Time (22° C.) for Film Sterilization (100 μg/ml): 360 min
